Assay results: patent US12268676B2, “Antiviral applications of picolinic acid and its derivatives” (INDIAN INSTITUTE OF SCIENCE, priority 2021, dated 2025)
Structures can show the parent of a compound that is named as a salt.

How the values were obtained:
[1] = system: pseudotyped SARS CoV-2 particles; test: microbe, parasite or virus in culture; type: cell-based; details: Severe acute respiratory syndrome coronavirus 2; read-out: inhibition of pseudotyped SARS CoV-2 virus entry
SARS-CoV-2 = test: SARS CoV-2 infection studies in the hamster model; type: in vivo, Syrian golden hamsters; details: CQ dosed therapeutically
[2] = system: R18 labelled PR8 WT virus; test: Influenza virus membrane fusion assay (R18 fluorescence); type: cell-based, Influenza A virus; details: 90 min

Q: Which inhibition at 500 µM [1] does the source give for `CN(C)C(=O)COC(=O)Cc1ccc(OC(=O)c2ccc(NC(=N)N)cc2)cc1` [CM, Camostat mesylate, reference compound] here?
A: Its inhibition at 500 µM is 60%.

Q: Which “lung viral loads reduced by” value (SARS-CoV-2) does the source give for `CCN(CC)CCCC(C)Nc1ccnc2cc(Cl)ccc12` (centres unmarked) [CQ, Chloroquine, reference compound] here?
A: The value was ~1 log.

Q: And the “virus-entry associated increase in fluorescence intensity” value ([2]; 10 μM CQ)?
A: Its value is “able to inhibit”.

Q: And the inhibition at 10 µM [1]?
A: The inhibition at 10 µM was 90%.

Q: Which “virus-entry associated increase in fluorescence intensity” value ([2]; 10 μM NH4Cl) does the source give for `Cl.N` [NH4Cl, ammonium chloride] here?
A: Its value is “able to inhibit”.
